Experimental data taken from patent US6562828B1, “Amidine compounds” (Japan Tobacco Inc., priority 1998, dated 2003).
Structures can show the parent of a compound that is named as a salt.

What was measured:
Human FXa [1] = molecular target: T1, Human FXa (Homo sapiens, UniProt P00742); assay: Intravenous administration test in mouse, human FXa inhibitory activity in serum; format: in vivo; settings: ICR mice, i.v., mean ± S.D., n = 3
T1 construct: Human FXa [Enzyme research Laboratories (USA)] enzyme; purchased Enzyme Research Laboratories (USA)
T1 sequence (P00742 235-488 limits assumed): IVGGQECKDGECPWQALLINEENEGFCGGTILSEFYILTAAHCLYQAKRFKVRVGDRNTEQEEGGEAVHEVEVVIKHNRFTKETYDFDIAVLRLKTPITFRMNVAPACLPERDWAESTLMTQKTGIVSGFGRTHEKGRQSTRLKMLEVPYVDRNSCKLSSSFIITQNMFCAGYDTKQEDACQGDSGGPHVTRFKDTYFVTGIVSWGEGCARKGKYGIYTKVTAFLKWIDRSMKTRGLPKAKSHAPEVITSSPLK
T1 sequence (P00742 41-179 limits assumed): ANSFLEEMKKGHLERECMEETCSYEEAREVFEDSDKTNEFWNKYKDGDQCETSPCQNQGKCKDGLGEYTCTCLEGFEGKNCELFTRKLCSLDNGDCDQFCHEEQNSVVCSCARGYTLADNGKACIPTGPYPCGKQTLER
Experimental: Intravenous Administration Tests in Mouse
A test compound dissolved in physiological saline was intravenously administered to ICR mice (body weight 20-30 g, 4-6 weeks old) and the activity of the test compound was evaluated based on the human FXa inhibitory activity in serum as an indicator.
At 10, 30, 60, 120 min from the intravenous administration, blood was taken from the eye ground using a hematocrit tube. The blood was centrifuged at 9000 G for 5 min and the obtained serum was used for the determination.
(§1) Human FXa inhibitory activity was measured as follows. Human FXa [Enzyme research Laboratories (USA)] enzyme (40 μl, 0.5 U/ml) and a 4-fold diluted plasma sample (40 μl) were incubated in 0.1M Tris-0.2M NaCl buffer (pH 8.4) (40 μl) at 37° C. for 10 min. A synthetic substrate S-2222 (Daiichi Pure Chemical (Tokyo, Japan), 40 μl) adjusted to 0.8 mM was added and the mixture was incubated at 37° C. for 5 min. The reaction was stopped by addition of 60% acetic acid (40 μl) and absorbance at 405 nm was measured by Model 3550 (BIO-RAD). For the control, serum or plasma obtained prior to blood sampling was used for measurement. Human FXa inhibitory activity was calculated as inhibition percentage (%) against control.

Human FXa [2] = molecular target: T1, Human FXa; assay: Oral administration test in mouse, human FXa inhibitory activity in serum; format: in vivo; settings: ICR mice, mean ± S.D., n = 3
Experimental: as §1
Oral Administration Tests in Mouse
A test compound dissolved in distilled water was orally administered to ICR mice (body weight 20-30 g, 4-6 weeks old) and the activity of the test compound was evaluated based on the human FXa inhibitory activity in serum as an indicator.
At 30, 60, 120, 180 min from the oral administration, blood was taken from the eye ground using a hematocrit tube. The blood was centrifuged at 9000 G for 5 min and the obtained serum was used for the determination. Human FXa inhibitory activity was determined in the same manner as in the test by intravenous administration.

normal plasma [3] = assay: Determination of prothrombin time (PT), crab-eating monkey plasma; format: biochemical
Experimental: (§2) Determination of prothrombin time (PT)
(§3) Blood was taken from mouse, rat, crab-eating monkey and healthy human volunteers, and citric acid was added. The blood was centrifuged at 4° C. and 2000 G for 15 min to obtain normal plasma of various animals.
(§4) Purified water (5 μl) containing various concentrations of test compound was added to plasma (45 μl) and the resultant mixtures were used as samples. […] (Baxter) was prepared and heated at […] for 5 min, and a sample (50 μl) was admixed with the thrombin reagent (100 μl). The time (PT) until precipitation of fibrin was measured. The drug concentration that doubled the PT hours of the drug untreated group was calculated and taken as CT2.

normal plasma [4] = assay: Determination of prothrombin time (PT), human plasma; format: biochemical
Experimental: as §2, §3, §4

normal plasma [5] = assay: Determination of prothrombin time (PT), mouse plasma; format: biochemical
Experimental: as §2, §3, §4

[6] = test system: decrease of platelets and formation of FDP by thromboplastin; assay: Blood coagulation model in rat (thromboplastin); format: in vivo; settings: i.v. 10 min before thromboplastin, mean ± S.D, n = 3; for PLT value: counted 10 min later; for FDP value: measured 30 min later
Experimental: Blood Coagulation Model in Rat
Intravenous administration of thromboplastin (Sigma) to rat promotes coagulation system, which in turn decreases platelets and increases fibrin degradation product (FDP). Thus, the test compound was intravenously administered 10 min before thromboplastin administration and the inhibitory effects of the test compound on the decrease of platelets and the formation of FDP by thromboplastin were studied. The thromboplastin administered had such concentration as to form clots within 20 seconds from the addition of one plasma dose to two thromboplastin doses and was administered in 1 ml/kg dose. Platelets were counted (PLT value) 10 min later on a blood cell counter sysmex F-800 [Dade International Inc. (USA)], and FDP was measured 30 min later using FDP latex reagent for serum [Teikoku Hormone Mfg. Co., Ltd. (Tokyo, Japan)]. In every Example, the PLT value of the thromboplastin untreated group was (106±13)×10^4 and the FDP value of this group was 0±0 μg/ml.

normal plasma [7] = assay: Determination of prothrombin time (PT), rat plasma; format: biochemical
Experimental: as §2, §3, §4

Human FIIa = molecular target: T2, Human FIIa (Homo sapiens, UniProt P00734); assay: Determination of anti-factor IIa (FIIa) activity, synthetic substrate S-2238; format: biochemical; settings: S-2238, 37° C., pH 8.4, read-out: Experimental Example 2: anti-FIIa activity, IC50
T2 construct: purchased Sigma

## CC(=N)N1CC[C@H](Oc2ccc([C@H](Cc3ccc4ccc(C(=N)N)cc4c3)C(=O)O)cc2)C1 [Comparative Example 1, (2S)-2-[4-[(3S)-1-acetimidoylpyrrolidin-3-yloxy]phenyl]-3-[7-amidinonaphthalen-2-yl]propionic acid hydrochloride pentahydrate, reference compound]
Human FXa [1]; 10 minutes
  inhibition at 1 mg/kg: 43 ± 3%
Human FXa [1]; 30 minutes
  inhibition at 1 mg/kg: 14 ± 2%
Human FXa [1]; 60 minutes
  inhibition at 1 mg/kg: 0%
Human FXa [1]; 120 minutes
  inhibition at 1 mg/kg: 1 ± 2%
Human FXa [2]; 30 minutes
  inhibition at 10 mg/kg: 11 ± 4%
Human FXa [2]; 60 minutes
  inhibition at 10 mg/kg: 6 ± 4%
Human FXa [2]; 120 minutes
  inhibition at 10 mg/kg: 6 ± 4%
Human FXa [2]; 180 minutes
  inhibition at 10 mg/kg: 6 ± 4%
Normal plasma [3]
  CT2 (drug concentration that doubled the PT): 4 µM
Normal plasma [4]
  CT2 (drug concentration that doubled the PT): 2 µM
Normal plasma [5]
  CT2 (drug concentration that doubled the PT): 10 µM
[6]; dose 0.03 mg/kg
  PLT value: 41 ± 9 ×10^4 blood platelet/μl
  FDP value: 9 ± 2 µg/mL
[6]; dose 0.1 mg/kg
  PLT value: 67 ± 16 ×10^4 blood platelet/μl
  FDP value: 3 ± 2 µg/mL
[6]; dose 0.3 mg/kg
  PLT value: 100 ± 5 ×10^4 blood platelet/μl
  FDP value: 1 ± 1 µg/mL
Normal plasma [7]
  CT2 (drug concentration that doubled the PT): 10 µM

## N=C(N)N1CCc2ccc(OCC3(C(=O)O)CCN(c4ccncc4)CC3)cc2C1 [Example 67, 4-(2-Amidino-1,2,3,4-tetrahydroisoquinolin-7-yloxymethyl)-1-(pyridin-4-yl)piperidine-4-carboxylic Acid Methanesulfonate]
Normal plasma [3]
  CT2 (drug concentration that doubled the PT): 5 µM

## N=C(N)N1CCc2ccc(OCC3(C(=O)O)CCN(c4ccncc4)CC3)cc2C1 [Example 7, 4-(2-Amidino-1,2,3,4-tetrahydroisoquinolin-7-yloxymethyl)-1-(pyridin-4-yl)piperidine-4-carboxylic Acid Dihydrochloride]
Human FXa [1]; 10 minutes
  inhibition at 1 mg/kg: 64 ± 2%
  inhibition at 3 mg/kg: 82 ± 1%
Human FXa [1]; 30 minutes
  inhibition at 1 mg/kg: 54 ± 1%
  inhibition at 3 mg/kg: 78 ± 1%
Human FXa [1]; 60 minutes
  inhibition at 1 mg/kg: 46 ± 4%
  inhibition at 3 mg/kg: 72 ± 2%
Human FXa [1]; 120 minutes
  inhibition at 1 mg/kg: 30 ± 5%
  inhibition at 3 mg/kg: 59 ± 5%
Human FXa [2]; 30 minutes
  inhibition at 10 mg/kg: 48 ± 7%
Human FXa [2]; 60 minutes
  inhibition at 10 mg/kg: 40 ± 9%
Human FXa [2]; 120 minutes
  inhibition at 10 mg/kg: 26 ± 7%
Human FXa [2]; 180 minutes
  inhibition at 10 mg/kg: 18 ± 9%
Human FIIa
  IC50: > 10 µM
Normal plasma [4]
  CT2 (drug concentration that doubled the PT): 0.5 µM
Normal plasma [5]
  CT2 (drug concentration that doubled the PT): 10 µM
[6]; dose 0.1 mg/kg
  PLT value: 66 ± 21 ×10^4 blood platelet/μl
  FDP value: 7 ± 3 µg/mL
[6]; dose 0.3 mg/kg
  PLT value: 72 ± 10 ×10^4 blood platelet/μl
  FDP value: 4 ± 1 µg/mL
[6]; dose 1 mg/kg
  PLT value: 96 ± 18 ×10^4 blood platelet/μl
  FDP value: 0 ± 0 µg/mL
Normal plasma [7]
  CT2 (drug concentration that doubled the PT): 30 µM
